What all share (assay): DTP human tumour cell line panel, 48 h
The subject of assay [1] is ACHN renal.
The test system of assay [2] is IGROV1 ovarian.
The test system of assay [3] is M14 melanoma.
For assay [4], the system named is NCI-H460 lung.
The subject of assay [5] is COLO 205 colon.
Assay [6] concerns MOLT-4 leukemia.
Assay [7] relates to A498 renal.
The subject of assay [8] is SK-MEL-28 melanoma.
The test system of assay [9] is HCC-2998 colon.
Assay [10] deals with MALME-3M melanoma.

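Compound exposure: 48 hours, 5 concentrations, 96-well plates. GI50: concentration for 50% inhibition of growth. Definition used: TGI = concentration required for complete inhibition of growth.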 A value given as a limit tells only on which side of the number the result lay.

Our source for the TGI and GI50 values is PubChem BioAssay (NCI).

In general, TGI refers to the concentration giving total growth inhibition. By GI50 is commonly meant the concentration giving 50% growth inhibition.

In the case of `C=C1c2[nH]c3c([N+](=O)[O-])c(OC)ccc3c2CCN1C(C)=O`, the TGI in assay [1], in assay [2], in assay [3], in [4], in [5] and in assay [6] was over 100 µM each time. Further, the TGI in assay [7], in assay [8] and in assay [9] was over 100 µM in each case.
As for `Cc1[nH]c2ccccc2c1C1Cc2ccccc2N1C(=O)/C=C/C(=O)O` (centres undefined), the TGI in assay [1] is over 100 µM; in [2], over 100 µM; in [3], over 100 µM; in assay [4], 61.3 µM; in [5] it was over 100 µM; in [6], over 100 µM. The total growth inhibition concentration (TGI) in assay [7], in assay [9] and in [10] was over 100 µM in each case.
On to `COC(=O)c1cc(Cl)ccc1NC(=O)c1ccc([N+](=O)[O-])cc1`, for which the TGI was 26.5 µM in [1]; 57.8 µM in assay [2]; 90.7 µM in assay [3]; over 100 µM in assay [4]; over 100 µM in assay [6]; 34.5 µM in assay [7]. The results for the TGI in [8], in assay [9] and in assay [10] were over 100 µM, over 100 µM and 90.6 µM, respectively.
With `COc1ccc2ccccc2c1C1OC(=O)c2ccccc21` (centres undefined), the TGI in [1], in assay [2], in assay [3], in assay [5], in [6] and in assay [7] was over 100 µM throughout. Moreover, the TGI in assay [9] and in assay [10] was over 100 µM throughout.
For `COc1cc(C(=O)NC2CCN(C)CC2)c(F)cc1Nc1ncc2c(n1)N(C1CCCC1)CC(F)(F)C(=O)N2C`, the GI50 in [1] was under 0.0378 µM; in assay [2] it was under 0.0217 µM; in assay [3] it was 0.0235 µM; in assay [4] it was under 0.0168 µM; in assay [5] it was under 0.01 µM; in [6] it was 0.0171 µM. The values for the GI50 in assay [7], in assay [8] and in assay [9] were under 0.0196 µM, under 0.0209 µM and 0.0293 µM, respectively. Moreover, the TGI in assay [1] was 14.4 µM; in [2] it was 14.5 µM; in assay [3], 5.89 µM; in assay [4], 12.4 µM; in [5] it was 0.177 µM; in assay [6] it was 2.53 µM. Besides, the TGI in assay [7] was found to be 0.14 µM; in assay [8], 16.2 µM; in [9], 12.3 µM.
For the compound `Nc1[nH]nc2nc(-c3cccs3)cc(C(F)(F)F)c12`, the GI50 in [1] is over 21.6 µM; in [2], over 25 µM; in [3], over 25 µM; in [4], over 25 µM; in assay [5] it was over 25 µM; in [7] it was over 23.7 µM. Moreover, the GI50 in assay [8], in assay [9] and in assay [10] was over 25 µM in each case. In addition, the TGI in assay [1], in [2], in [3], in [4], in assay [5] and in [7] was over 25 µM in each case. For the same compound, the TGI in assay [8], in assay [9] and in assay [10] was over 25 µM throughout.
Consider `COC(=O)CCC(NC(=S)N/N=C/c1ccco1)C(=O)OC` (centres undefined), for which the TGI in assay [1], in assay [2], in [3], in assay [4], in [5] and in assay [7] was over 100 µM throughout. The TGI in assay [8], in assay [9] and in [10] was over 100 µM each time.
Consider `C[C@]12CCC3[C@@H](CC[C@@H]4c5nonc5CC[C@]34C)C1C/C(=N/O)C2=O` (some centres undefined), for which the TGI in assay [1], in assay [2], in [3], in [4], in assay [5] and in [6] was over 100 µM throughout. Moreover, the TGI in assay [7], in [8] and in assay [10] was over 100 µM in each case.
On to `COc1ccc(C2SC(C)C(=O)N2NC(=O)C(O)c2ccccc2)cc1OC` (centres undefined), for which the GI50 in assay [1], in [2], in [3], in assay [4], in assay [5] and in assay [6] was over 100 µM each time. The GI50 in assay [7], in assay [8] and in assay [9] was over 100 µM in each case. In addition, the TGI in assay [1], in assay [2], in assay [3], in assay [4], in assay [5] and in assay [6] was over 100 µM each time. The TGI in [7], in assay [8] and in assay [9] was over 100 µM in each case.
With `O=S1(=O)OCCOS(=O)(=O)C1Cc1ccccc1`, the TGI is over 100 µM in assay [1]; 93.3 µM in [2]; over 100 µM in assay [4]; 34.8 µM in assay [5]; over 100 µM in assay [6]; over 100 µM in assay [7]. The concentration for total growth inhibition (TGI) is over 100 µM in assay [8], 45.4 µM in assay [9] and over 100 µM in [10].
In the case of `C[CH2][Sn]([CH2]C)([O]C(=O)C(OC(C)=O)c1ccccc1)[O]C(=O)C(OC(C)=O)c1ccccc1` (centres undefined), the GI50 in assay [1] is 17.3 µM; in [2] it was over 100 µM; in assay [3], 44.5 µM; in [4] it was over 100 µM; in assay [5], 23.3 µM; in assay [6] it was 17.2 µM. The GI50 in assay [7] was 19.8 µM; in assay [8], 18.3 µM; in assay [10], 18.4 µM. The TGI was 31.1 µM in assay [1]; over 100 µM in [2]; over 100 µM in assay [3]; over 100 µM in assay [4]; 72.9 µM in assay [5]; 60.9 µM in [6]. Moreover, the TGI was found to be 35.6 µM in assay [7], 40.9 µM in [8] and 33.5 µM in [10].
